PubChem BioAssay AID1919004 (Molecular Pharmacology Branch, DTP, NCI, 2023)

System: 883617-216-R-J1-PDC complex spheroids, growth, % test/control
Assay: Anticancer human tumor 883617-216-R-J1-PDC patient-derived bladder carcinoma cell line growth inhibition [AhR]
Details: for IC50: curve of first compound; for viability, T/C: stronger effect = lower value
Outline: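 Agents were dosed in half-log steps down from roughly clinical Cmax, or from 10 microM where Cmax was unknown, alone and with AhR antagonists. Read-out: percent test/control growth of tumor spheroids containing HUVEC and MSC stromal cells.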

[1] = second compound 0.1 µM, first compound 0.00949 µM
[2] = second compound 0.1 µM, first compound 0.03 µM
[3] = second compound 0.1 µM, first compound 0.0949 µM
[4] = second compound 0.1 µM, first compound 0.3 µM
[5] = second compound 0.316 µM, first compound 0.00949 µM
[6] = second compound 0.316 µM, first compound 0.03 µM
[7] = second compound 0.316 µM, first compound 0.0949 µM
[8] = second compound 0.316 µM, first compound 0.3 µM
[9] = second compound 1 µM, first compound 0.00949 µM
[10] = second compound 1 µM, first compound 0.03 µM
[11] = second compound 1 µM, first compound 0.0949 µM
[12] = second compound 1 µM, first compound 0.3 µM
[13] = second compound 3.16 µM, first compound 0.00949 µM
[14] = second compound 3.16 µM, first compound 0.03 µM
[15] = second compound 3.16 µM, first compound 0.0949 µM
[16] = second compound 3.16 µM, first compound 0.3 µM
[17] = second compound 10 µM, first compound 0.00949 µM
[18] = second compound 10 µM, first compound 0.03 µM
[19] = second compound 10 µM, first compound 0.0949 µM
[20] = second compound 10 µM, first compound 0.3 µM
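Note: exposure lasted 7 days after dosing on day 3 of spheroid growth.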

Structure (SMILES): NS(=O)(=O)OCC1CC(n2ccc3c(NC4CCc5ccccc54)ncnc32)CC1O (stereo not given) + Cc1cncc(-c2nc(NCCc3c[nH]c4ccccc34)c3ncn(C(C)C)c3n2)c1
- IC50 (second compound 0.1 µM): 2750 nM
- IC50 (second compound 0.316 µM): 2990 nM
- IC50 (second compound 1 µM): 2790 nM
- IC50 (second compound 3.16 µM): 2260 nM
- IC50 (second compound 10 µM): < 31.6 nM
- viability, T/C (second compound 0.1 µM, first compound 0.0316 µM): 118%
- viability, T/C (second compound 0.1 µM, first compound 0.1 µM): 165%
- viability, T/C (second compound 0.1 µM, first compound 0.316 µM): 209%
- viability, T/C (second compound 0.1 µM, first compound 1 µM): 131%
- viability, T/C (second compound 0.1 µM, first compound 3.16 µM): 43.6%
- viability, T/C (second compound 0.1 µM, first compound 10 µM): 29.1%
- viability, T/C (second compound 0.316 µM, first compound 0.0316 µM): 128%
- viability, T/C (second compound 0.316 µM, first compound 0.1 µM): 164%
- viability, T/C (second compound 0.316 µM, first compound 0.316 µM): 225%
- viability, T/C (second compound 0.316 µM, first compound 1 µM): 120%
- viability, T/C (second compound 0.316 µM, first compound 3.16 µM): 44.5%
- viability, T/C (second compound 0.316 µM, first compound 10 µM): 25.9%
- viability, T/C (second compound 1 µM, first compound 0.0316 µM): 141%
- viability, T/C (second compound 1 µM, first compound 0.1 µM): 167%
- viability, T/C (second compound 1 µM, first compound 0.316 µM): 212%
- viability, T/C (second compound 1 µM, first compound 1 µM): 130%
- viability, T/C (second compound 1 µM, first compound 3.16 µM): 48%
- viability, T/C (second compound 1 µM, first compound 10 µM): 30.1%
- viability, T/C (second compound 3.16 µM, first compound 0.0316 µM): 141%
- viability, T/C (second compound 3.16 µM, first compound 0.1 µM): 179%
- viability, T/C (second compound 3.16 µM, first compound 0.316 µM): 204%
- viability, T/C (second compound 3.16 µM, first compound 1 µM): 112%
- viability, T/C (second compound 3.16 µM, first compound 3.16 µM): 33.2%
- viability, T/C (second compound 3.16 µM, first compound 10 µM): 15.4%
- viability, T/C (second compound 10 µM, first compound 0.0316 µM): 48.1%
- viability, T/C (second compound 10 µM, first compound 0.1 µM): 50.6%
- viability, T/C (second compound 10 µM, first compound 0.316 µM): 28.6%
- viability, T/C (second compound 10 µM, first compound 1 µM): 6.98%
- viability, T/C (second compound 10 µM, first compound 3.16 µM): 4.81%
- viability, T/C (second compound 10 µM, first compound 10 µM): 2.51%

Structure (SMILES): CC(C)CC(NC(=O)C(Cc1ccccc1)NC(=O)c1cnccn1)B(O)O (stereo not given) + CC(CO)NC(=O)c1cc(-c2ccc(Cl)cc2)nn(-c2cnn(C)c2)c1=O
- IC50 (second compound 0.1 µM): 1.86 nM
- IC50 (second compound 0.316 µM): 2.2 nM
- IC50 (second compound 1 µM): 2.21 nM
- IC50 (second compound 3.16 µM): 1.59 nM
- IC50 (second compound 10 µM): 1.99 nM
- viability, T/C (second compound 0.1 µM, first compound 0.000949 µM): 106%
- viability, T/C (second compound 0.1 µM, first compound 0.003 µM): 10.4%
- viability, T/C [1]: 2.11%
- viability, T/C [2]: 2.02%
- viability, T/C [3]: 1.92%
- viability, T/C [4]: 3.28%
- viability, T/C (second compound 0.316 µM, first compound 0.000949 µM): 123%
- viability, T/C (second compound 0.316 µM, first compound 0.003 µM): 22.9%
- viability, T/C [5]: 2.66%
- viability, T/C [6]: 3.45%
- viability, T/C [7]: 3.14%
- viability, T/C [8]: 2.44%
- viability, T/C (second compound 1 µM, first compound 0.000949 µM): 123%
- viability, T/C (second compound 1 µM, first compound 0.003 µM): 23.5%
- viability, T/C [9]: 1.76%
- viability, T/C [10]: 2.42%
- viability, T/C [11]: 1.86%
- viability, T/C [12]: 3.98%
- viability, T/C (second compound 3.16 µM, first compound 0.000949 µM): 80.2%
- viability, T/C (second compound 3.16 µM, first compound 0.003 µM): 13.3%
- viability, T/C [13]: 3.01%
- viability, T/C [14]: 2.25%
- viability, T/C [15]: 2.47%
- viability, T/C [16]: 1.67%
- viability, T/C (second compound 10 µM, first compound 0.000949 µM): 122%
- viability, T/C (second compound 10 µM, first compound 0.003 µM): 10.3%
- viability, T/C [17]: 1.69%
- viability, T/C [18]: 2.43%
- viability, T/C [19]: 2.25%
- viability, T/C [20]: 1.87%

Structure (SMILES): O=C(C=Cn1cnc(-c2cc(C(F)(F)F)cc(C(F)(F)F)c2)n1)NNc1cnccn1 + Cc1cncc(-c2nc(NCCc3c[nH]c4ccccc34)c3ncn(C(C)C)c3n2)c1
- IC50 (second compound 0.1 µM): 900 nM
- IC50 (second compound 0.316 µM): 1380 nM
- IC50 (second compound 1 µM): 1760 nM
- IC50 (second compound 3.16 µM): 1530 nM
- IC50 (second compound 10 µM): < 9.49 nM
- viability, T/C [1]: 81.5%
- viability, T/C [2]: 74.9%
- viability, T/C [3]: 63.7%
- viability, T/C [4]: 58.1%
- viability, T/C (second compound 0.1 µM, first compound 0.949 µM): 50.1%
- viability, T/C (second compound 0.1 µM, first compound 3 µM): 42.5%
- viability, T/C [5]: 88.3%
- viability, T/C [6]: 78.4%
- viability, T/C [7]: 72.3%
- viability, T/C [8]: 58.1%
- viability, T/C (second compound 0.316 µM, first compound 0.949 µM): 57.1%
- viability, T/C (second compound 0.316 µM, first compound 3 µM): 42.4%
- viability, T/C [9]: 83%
- viability, T/C [10]: 79.1%
- viability, T/C [11]: 69.5%
- viability, T/C [12]: 61.4%
- viability, T/C (second compound 1 µM, first compound 0.949 µM): 62%
- viability, T/C (second compound 1 µM, first compound 3 µM): 42.7%
- viability, T/C [13]: 93.6%
- viability, T/C [14]: 88.2%
- viability, T/C [15]: 80%
- viability, T/C [16]: 67.5%
- viability, T/C (second compound 3.16 µM, first compound 0.949 µM): 52.9%
- viability, T/C (second compound 3.16 µM, first compound 3 µM): 45.2%
- viability, T/C [17]: 49.5%
- viability, T/C [18]: 40.5%
- viability, T/C [19]: 32.4%
- viability, T/C [20]: 29.7%
- viability, T/C (second compound 10 µM, first compound 0.949 µM): 42.5%
- viability, T/C (second compound 10 µM, first compound 3 µM): 44.2%
